Results taken from patent publication EP0019589A1, “Tripeptide derivatives and their use in a process for determining enzymes” (Pentapharm A.G., priority 1979, dated 1980).
Non-standard residues stand in square brackets, D forms with d. Residues, ends and D or L forms follow the SMILES beside them. *: point of attachment. dCha = N[C@H](CC1CCCCC1)C(=O)O; pNA = O=[N+]([O-])c1ccc(N*)cc1; Abu = CC[C@H](N)C(=O)O

How the values were obtained:
Format in all cases: biochemical
[1] = target: T1, Submandibularis-Kallikrein (Homo sapiens, UniProt P06870); assay: Cleavage of chromogenic substrate by submandibular (glandular) kallikrein in human sputum; conditions: 1 ml human sputum, per min; Substratkonzentration 2 x 10^-4 molar
T1 construct: Man mischt 0,5 ml Sputum mit 2 ml TRIS-Imidazol-Puffer; from tissue; host or cells: human sputum
Method in brief: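 Sputum mixed with TRIS-imidazole buffer (ionic strength 1.0), preincubated 5 min at 37°C and centrifuged; supernatant incubated with aqueous substrate solution (2 x 10^-3 M, stock). p-Nitroaniline release followed continuously at 405 nm for 5-10 min; activity expressed as mU per ml sputum from ΔOD/min.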

[2] = target: T2, Urinkallikrein (Homo sapiens, UniProt P06870); assay: Cleavage of chromogenic substrate by urinary kallikrein in human urine; conditions: 1 ml human urine (pooled morning urine of healthy persons), per min; Substratkonzentration 2 x 10^-4 molar
T2 construct: 1 ml Urin und 1 ml TRIS-Imidazol-Puffer mit pH 7,9; from tissue; host or cells: human urine

[3] = target: T3, Humanthrombin (Homo sapiens, UniProt P00734); assay: Cleavage of chromogenic substrate by human NIH thrombin; conditions: 1 NIH-Einheit human thrombin, per min; Substratkonzentration 2 x 10^-4 molar
T3 construct: Humanplasmin und hu-manem NIH-Thrombin
Method in brief: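 Thrombin hydrolysis of chromogenic p-nitroanilide substrate read spectrophotometrically at 405 nm; fluorogenic naphthylamine, methylcoumarylamine or di(methoxycarbonyl)phenylamine substrates read continuously by fluorescence emission at 400-470 nm. Activity taken as product formed per unit time; 1 µmol product/min defined as 1 enzyme unit for a given substrate.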

[4] = target: T4, Humanplasmin (Homo sapiens, UniProt P00747); assay: Cleavage of chromogenic substrate by human plasmin; conditions: 1 CU-Einheit human plasmin, per min; Substratkonzentration 2 x 10^-4 molar
T4 construct: da bei der Aktivierung aus 1 Molekül Plasminogen 1 Molekül Plasmin entsteht
T4 sequence (P00747 581-810 limits assumed): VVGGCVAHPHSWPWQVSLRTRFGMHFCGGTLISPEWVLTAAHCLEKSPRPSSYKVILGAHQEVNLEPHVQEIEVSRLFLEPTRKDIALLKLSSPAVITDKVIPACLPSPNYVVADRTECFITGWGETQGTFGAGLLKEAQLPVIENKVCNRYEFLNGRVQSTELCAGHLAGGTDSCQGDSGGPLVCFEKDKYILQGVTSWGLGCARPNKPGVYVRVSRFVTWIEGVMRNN
T4 sequence (P00747 97-580 partner limits assumed): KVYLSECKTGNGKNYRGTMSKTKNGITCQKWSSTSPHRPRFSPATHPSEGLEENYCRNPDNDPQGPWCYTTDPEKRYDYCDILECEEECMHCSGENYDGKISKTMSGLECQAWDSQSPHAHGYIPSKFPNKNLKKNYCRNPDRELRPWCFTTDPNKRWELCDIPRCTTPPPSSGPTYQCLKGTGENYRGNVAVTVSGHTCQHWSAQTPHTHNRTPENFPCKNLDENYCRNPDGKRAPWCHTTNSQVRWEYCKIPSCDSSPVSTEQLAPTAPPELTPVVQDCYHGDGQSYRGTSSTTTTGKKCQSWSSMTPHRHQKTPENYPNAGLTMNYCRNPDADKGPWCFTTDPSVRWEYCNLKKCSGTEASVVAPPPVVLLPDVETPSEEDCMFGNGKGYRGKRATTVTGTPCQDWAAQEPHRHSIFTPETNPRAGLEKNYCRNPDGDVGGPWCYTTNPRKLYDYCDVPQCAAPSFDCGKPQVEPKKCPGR

T2 sequence (P06870 25-262): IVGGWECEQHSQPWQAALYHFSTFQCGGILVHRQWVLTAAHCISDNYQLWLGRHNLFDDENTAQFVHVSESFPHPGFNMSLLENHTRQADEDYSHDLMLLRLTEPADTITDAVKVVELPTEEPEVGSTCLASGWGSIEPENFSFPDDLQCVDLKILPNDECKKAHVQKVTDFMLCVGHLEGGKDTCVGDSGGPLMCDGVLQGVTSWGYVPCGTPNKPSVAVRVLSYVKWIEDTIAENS
T1 sequence (P06870 25-262): as above

SMILES	Menge des durch 1 ml Humansputum pro Min. freigesetzten Spaltproduktes R-NH2 in Nanomol (Submandibularis-Kallikrein) [1]	Menge des durch 1 ml Humanurin pro Min. freigesetzten Spaltproduktes R-NH2 in Nanomol (Urinkallikrein) [2]	Menge des durch 1 NIH-Einheit Thrombin pro Min. freigesetzten Spaltproduktes R-NH2 in Nanomol (Humanthrombin) [3]	Menge des durch 1 CU-Einheit Humanplasmin pro Min. freigesetzten Spaltproduktes R-NH2 in Nanomol (Humanplasmin) [4]
CC[C@H](NC(=O)[C@H](N)CC1CCCCC1)C(=O)N[C@@H](CCCNC(=N)N)C(=O)Nc1ccc([N+](=O)[O-])cc1 [Beispiel 76, 2HBr.H-D-CHA-But-Arg-pNA] (H-[dCha]-[Abu]-Arg-pNA)	18,1 Nanomol	0,51 Nanomol	108,9 Nanomol	478 Nanomol
CC[C@H](NC(=O)[C@H](N)CC1CCC(O)CC1)C(=O)N[C@@H](CCCNC(=N)N)C(=O)Nc1ccc([N+](=O)[O-])cc1 (stereo partly drawn) [Beispiel 77, 2HBr.H-D-CHT-But-Arg-pNA]	18,2 Nanomol	0,64 Nanomol	114,2 Nanomol	463 Nanomol
